Data reported in article PMC6478823, “A suite of phenotypic assays to ensure pipeline diversity when prioritizing drug-like Cryptosporidium growth inhibitors” (Nature Communications, 2019).

Tested on: C. parvum
Assay: not given
Format: cell-based, Cryptosporidium parvum
Details: compound at EC90; average of replicates
Protocol: The first step in infection is host cell invasion, which involves a complex process encompassing oocyst excystation, parasite motility, adhesion, and parasitophorous vacuole formation (Fig. 2a). Our strategy to assay for compounds affecting invasion was simply to expose C. parvum to compounds immediately after triggering excystation and throughout the invasion process, and then enumerate the parasite vacuoles after 3 h, prior to allowing the parasites to replicate (summarized in Fig. 2b).
Fig. 2 Invasion Assay. a Overview of life cycle stage investigated during the invasion assay. Representative TEM images of a C. parvum oocyst and HCT-8 cell shortly after infection (Scale bar = 500 nm). b Schematic of experimental design. […] Each point represents the mean and SD of at least two biological replicates with four technical replicates per experiment.
C. parvum invasion inhibition was measured by modifying the 48 h growth inhibition assay described above. […] In parallel, Iowa strain oocysts were excysted. […] Assay plates were incubated at 37 °C and 5% CO2 for 3 h.

Row | Structure (SMILES) | Invasion Assay: Mean % Inhibition (parasites), Average
1 | c1ccc(CNc2nc(NCc3ccccc3)c3ccccc3n2)cc1 [B-23] | 83.80%
2 | CCOc1ccc2cc(-c3nn(CC4CCN(C)CC4)c4ncnc(N)c34)ccc2c1 [BKI-1294] | -6.64%
3 | CCOc1ccc2cc(-c3nn(CC4CCN(C)CC4)c4ncnc(N)c34)ccc2n1 [BKI-1369] | -7.94%

Same assay, conditions: compound at EC90; single biological replicate 1

Row | Structure (SMILES) | Invasion Assay: Mean % Inhibition (parasites), Replicate 1a
4 | c1ccc(CNc2nc(NCc3ccccc3)c3ccccc3n2)cc1 [B-23] | 84%
5 | CCOc1ccc2cc(-c3nn(CC4CCN(C)CC4)c4ncnc(N)c34)ccc2c1 [BKI-1294] | 12%
6 | CCOc1ccc2cc(-c3nn(CC4CCN(C)CC4)c4ncnc(N)c34)ccc2n1 [BKI-1369] | -5%

Same assay, conditions: compound at EC90; single biological replicate 2

Row | Structure (SMILES) | Invasion Assay: Mean % Inhibition (parasites), Replicate 2a
7 | c1ccc(CNc2nc(NCc3ccccc3)c3ccccc3n2)cc1 [B-23] | 83%
8 | CCOc1ccc2cc(-c3nn(CC4CCN(C)CC4)c4ncnc(N)c34)ccc2c1 [BKI-1294] | -26%
9 | CCOc1ccc2cc(-c3nn(CC4CCN(C)CC4)c4ncnc(N)c34)ccc2n1 [BKI-1369] | -11%

Same assay, conditions: yes/no grouping by phenotypic assay result; compound at EC90

Row | Structure (SMILES) | Sporozoite invasion
10 | c1ccc(CNc2nc(NCc3ccccc3)c3ccccc3n2)cc1 [B-23] | yes

Tested on: C. parvum
Assay: DNA replication assay (EdU incorporation)
Format: cell-based, Cryptosporidium parvum
Details: compound at EC90; average of replicates

Row | Structure (SMILES) | DNA Synthesis Assay: Mean % Inhibition of EdU-labeling (normalized to parasite numbers), Average
11 | c1ccc(CNc2nc(NCc3ccccc3)c3ccccc3n2)cc1 [B-23] | 1.59%
12 | CCOc1ccc2cc(-c3nn(CC4CCN(C)CC4)c4ncnc(N)c34)ccc2c1 [BKI-1294] | -5.73%
13 | CCOc1ccc2cc(-c3nn(CC4CCN(C)CC4)c4ncnc(N)c34)ccc2n1 [BKI-1369] | 16.97%

Same assay, conditions: compound at EC90; single replicate 1

Row | Structure (SMILES) | DNA Synthesis Assay: Mean % Inhibition of EdU-labeling (normalized to parasite numbers), Replicate 1
14 | c1ccc(CNc2nc(NCc3ccccc3)c3ccccc3n2)cc1 [B-23] | -16.14%
15 | CCOc1ccc2cc(-c3nn(CC4CCN(C)CC4)c4ncnc(N)c34)ccc2c1 [BKI-1294] | -9.55%
16 | CCOc1ccc2cc(-c3nn(CC4CCN(C)CC4)c4ncnc(N)c34)ccc2n1 [BKI-1369] | 25.00%

Same assay, conditions: compound at EC90; single replicate 2

Row | Structure (SMILES) | DNA Synthesis Assay: Mean % Inhibition of EdU-labeling (normalized to parasite numbers), Replicate 2
17 | c1ccc(CNc2nc(NCc3ccccc3)c3ccccc3n2)cc1 [B-23] | 17.17%
18 | CCOc1ccc2cc(-c3nn(CC4CCN(C)CC4)c4ncnc(N)c34)ccc2c1 [BKI-1294] | -1.92%
19 | CCOc1ccc2cc(-c3nn(CC4CCN(C)CC4)c4ncnc(N)c34)ccc2n1 [BKI-1369] | 8.94%

Same assay, conditions: compound at EC90; single replicate 3

Row | Structure (SMILES) | DNA Synthesis Assay: Mean % Inhibition of EdU-labeling (normalized to parasite numbers), Replicate 3
20 | c1ccc(CNc2nc(NCc3ccccc3)c3ccccc3n2)cc1 [B-23] | 3.74%

Same assay, conditions: yes/no grouping by phenotypic assay result; compound at EC90

Row | Structure (SMILES) | DNA synthesis
21 | c1ccc(CNc2nc(NCc3ccccc3)c3ccccc3n2)cc1 [B-23] | no

Tested on: C. parvum DMC1 expression
Assay: Sexual differentiation assay (DMC1 expression)
Format: cell-based, Cryptosporidium parvum
Details: compound at asexual EC90, 48-72 h; average of replicates
Excerpt: We utilized DMC1 as a marker of C. parvum sexual development, and used the anti-DMC1 monoclonal antibody to develop a moderate-throughput high-content microscopy assay for characterizing anticryptosporidial compounds (Fig. 6a). […] Therefore, in order to enable numerical comparison of the ability of compounds to block sexual development with moderate throughput, we adopted a strategy of reporting the percent inhibition of DMC1 expression by the previously determined EC90 of each compound in the standard asexual development assay (Fig. 6c and Supplementary Table 2).
Fig. 6 Assay to measure asexual-to-sexual-stage conversion. a Schematic of the experimental approach. […] For b and c the mean and SD combined from at least two biological replicates with four technical replicates per experiment are shown. […] At given time points post-infection, infected cells were washed 3 times with PBS containing 111 mM of D-galactose, fixed for 15 min at room temperature with 4% paraformaldehyde in PBS, and permeabilized with 0.25% triton X-100 in PBS for 10 min at 37 °C. Cells were then washed 3 times with PBS and blocked at least overnight at 4 °C with 1% BSA in PBS (blocking buffer). Cells were stained with monoclonal antibody (1H10G7), either neat culture supernatant or 12.8 µg/mL of purified IgG in blocking buffer for 1 h at 37 °C, followed by 2 washes with PBS. Cells were then co-stained with a 1:500 dilution (4 µg/mL) of Alexa Fluor 568 goat anti-mouse IgG (Invitrogen, catalog# A-11004) and 1.33 µg/mL fluorescein-labeled Vicia villosa lectin (Vector Laboratories, catalog# FL-1231) diluted in blocking buffer for 1 h at 37 °C. Stains were then removed and 0.09 mM Hoechst 33258 (AnaSpec, catalog# AS-83219) also diluted in blocking buffer was added for another 15 min at 37 °C, followed by 2 PBS washes and imaging on a Nikon Eclipse Ti2000 epifluorescence microscope run with NIS-Elements Advanced Research software (Nikon, USA) and equipped with an EXi blue fluorescent microscopy camera (QImaging, Canada). For enumerating parasites, tiled 2 × 2 images with 15% overlapping edges were taken using a 40 × dry objective (0.7 NA), and for finer details, Z stack images were acquired using a 60 × oil objective (1.4 NA). Lectin positive cells in focus were first counted, followed by DMC1.
For compound dose-response studies, the same assay was performed in 384-well plates and imaged using a 20 × dry objective (NA = 0.45). Tiled 4 × 4 to 6 × 6 images were taken. Images were analyzed using ImageJ software and the custom macro provided in Supplementary Method 2.

Row | Structure (SMILES) | Asexual to sexual differentiation: Mean % DMC1 inhibition (normalized to host nuclei), Average
22 | c1ccc(CNc2nc(NCc3ccccc3)c3ccccc3n2)cc1 [B-23] | -6.40%
23 | CCOc1ccc2cc(-c3nn(CC4CCN(C)CC4)c4ncnc(N)c34)ccc2c1 [BKI-1294] | 45.56%
24 | CCOc1ccc2cc(-c3nn(CC4CCN(C)CC4)c4ncnc(N)c34)ccc2n1 [BKI-1369] | 41.93%

Same assay, conditions: compound at asexual EC90, 48-72 h; single replicate 1

Row | Structure (SMILES) | Asexual to sexual differentiation: Mean % DMC1 inhibition (normalized to host nuclei), Replicate 1a
25 | c1ccc(CNc2nc(NCc3ccccc3)c3ccccc3n2)cc1 [B-23] | -17.01%
26 | CCOc1ccc2cc(-c3nn(CC4CCN(C)CC4)c4ncnc(N)c34)ccc2c1 [BKI-1294] | 58.94%
27 | CCOc1ccc2cc(-c3nn(CC4CCN(C)CC4)c4ncnc(N)c34)ccc2n1 [BKI-1369] | -4.30%

Same assay, conditions: compound at asexual EC90, 48-72 h; single replicate 2

Row | Structure (SMILES) | Asexual to sexual differentiation: Mean % DMC1 inhibition (normalized to host nuclei), Replicate 2a
28 | c1ccc(CNc2nc(NCc3ccccc3)c3ccccc3n2)cc1 [B-23] | 2.19%
29 | CCOc1ccc2cc(-c3nn(CC4CCN(C)CC4)c4ncnc(N)c34)ccc2c1 [BKI-1294] | 32.18%
30 | CCOc1ccc2cc(-c3nn(CC4CCN(C)CC4)c4ncnc(N)c34)ccc2n1 [BKI-1369] | 59.32%

Same assay, conditions: compound at asexual EC90, 48-72 h; single replicate 3

Row | Structure (SMILES) | Asexual to sexual differentiation: Mean % DMC1 inhibition (normalized to host nuclei), Replicate 3a
31 | c1ccc(CNc2nc(NCc3ccccc3)c3ccccc3n2)cc1 [B-23] | -4.38%
32 | CCOc1ccc2cc(-c3nn(CC4CCN(C)CC4)c4ncnc(N)c34)ccc2n1 [BKI-1369] | 70.76%

Tested on: C. parvum
Assay: Egress, motility, reinvasion assay (PV ratio)
Details: compound at EC90; average of replicates
Protocol: For quantification of parasitophorous vacuoles over time, HCT-8 cells were grown to greater than 90% confluence in 384-well plates and infected with 11,000 oocysts after triggering excystation.

Row | Structure (SMILES) | Egress and Reinvasion Assay: Mean PV ratios (19.5h:6h), Average
33 | c1ccc(CNc2nc(NCc3ccccc3)c3ccccc3n2)cc1 [B-23] | 1.55
34 | CCOc1ccc2cc(-c3nn(CC4CCN(C)CC4)c4ncnc(N)c34)ccc2c1 [BKI-1294] | 1.49
35 | CCOc1ccc2cc(-c3nn(CC4CCN(C)CC4)c4ncnc(N)c34)ccc2n1 [BKI-1369] | 1.41

Same assay, conditions: compound at EC90; single replicate 1

Row | Structure (SMILES) | Egress and Reinvasion Assay: Mean PV ratios (19.5h:6h), Replicate 1a
36 | c1ccc(CNc2nc(NCc3ccccc3)c3ccccc3n2)cc1 [B-23] | 1.73
37 | CCOc1ccc2cc(-c3nn(CC4CCN(C)CC4)c4ncnc(N)c34)ccc2c1 [BKI-1294] | 1.81
38 | CCOc1ccc2cc(-c3nn(CC4CCN(C)CC4)c4ncnc(N)c34)ccc2n1 [BKI-1369] | 1.20

Same assay, conditions: compound at EC90; single replicate 2

Row | Structure (SMILES) | Egress and Reinvasion Assay: Mean PV ratios (19.5h:6h), Replicate 2a
39 | c1ccc(CNc2nc(NCc3ccccc3)c3ccccc3n2)cc1 [B-23] | 1.36
40 | CCOc1ccc2cc(-c3nn(CC4CCN(C)CC4)c4ncnc(N)c34)ccc2c1 [BKI-1294] | 1.18
41 | CCOc1ccc2cc(-c3nn(CC4CCN(C)CC4)c4ncnc(N)c34)ccc2n1 [BKI-1369] | 1.62
